# Literature values, collected in paper PMC3962266 (Journal of medicinal chemistry, 2013).
# Columns and labels:
# [1] = not given; remark: listed apart in the source
# [2] = not given; remark: listed apart in the source
smiles,measurement,setting,value
CCCCNc1ncc2c(-c3ccc(S(=O)(=O)N4CCOCC4)cc3)nn(C3CCC(O)CC3)c2n1 (stereo not shown) [UNC1062],Pharmacokinetic (PK) properties,,poor pharmacokinetic (PK) properties
same,Solubility,[1],low solubility
CC(=O)Oc1ccccc1C(=O)O [aspirin],Baseline major bleeding risk (gastrointestinal or intracranial),[2],1–4%
COC(=O)[C@H](c1ccccc1Cl)N1CCc2sccc2C1 [clopidogrel],Further increase of bleeding risk on addition as combination therapy,[2]; added to aspirin,1%
